# Patent US12090225B2 (Avalyn Pharma Inc., priority 2018, dated 2024)
# Like-named read-outs stand apart in the source and are kept apart here.
# Key:
# [1] = Apparent solubility of nintedanib HBr laboratory scale batches; type: physicochemical
# Source text: During this process, a new polymorphic form was identified (pattern X)
# [2] = Pattern stability screen of potential salts (40° C./75% RH, XRPD); type: physicochemical
# Experimental: XRPD analysis was carried out on a PANalytical X'pert pro, scanning the samples between 3 and 35° 20. The material was gently compressed and loaded onto a multi-well plate with Kapton or Mylar polymer film to support the sample.
# Primary Salt Screening. […] The solvent systems shown in Table were selected for salt screening. For sulfonic acids MEK was used instead of methanol and acetone:water 50:50 (v/v) was used instead of IPA:water to avoid any potential genotoxic impurities. Ca. […] If the acid was insoluble in the selected solvent, a slurry was used. If the acid was a liquid it was added to the API slurry from a stock solution in the allocated solvent. The mixtures of API/counterion/solvent were temperature cycled between ambient and 40° C. in 4 hour cycles for ca. 3 days. Any solids present were isolated and allowed to dry at ambient conditions, for ca. 30 minutes prior to analysis by XRPD. Where solutions were obtained they were evaporated to obtain solid material.
# [3] = 7 day stability testing of salts (40° C./75% RH, 80° C., ambient light; HPLC purity, XRPD); type: physicochemical; conditions: for XRPD pattern after 7 day stability testing: listed as phosphate salt
# Experimental: High Performance Liquid Chromatography-Ultraviolet Detection (HPLC-UV): Instrument: Dionex Ultimate 3000; Column: Acquity CSH C18 100 mm×2.1 mm 1.7 μm; Column Temperature: 50° C.; Autosampler Temperature: Ambient; UV wavelength: 210 nm; Injection Volume: 4 μL; Flow Rate: 0.6 mL/min; Mobile Phase A: 0.1% formic acid in water; Mobile Phase B: 0.1% formic acid in acetonitrile. The HPLC method used the gradient in Table 2.
# FT-IR appeared to be consistent with the structure. […] The material was physically stable to changes in temperature and humidity when stored for one week.
# A new, poorly crystalline pattern was produced when stored at 40° C./75% RH—Pattern 4.
# Purity of these materials remained unchanged (as shown in Table) apart from the sample stored at ambient light, where a 0.5% drop in purity was observed.
# [4] = Disproportionation/hydration studies (pH, XRPD pattern); type: physicochemical
# Source text: No XRPD data could be compiled on the hydration or disproportionation of the salt due to the high solubility in water and acetone/water mixtures.
# The salt only remained Pattern 1 at 0.3 aw. New patterns 6 and 7 are likely hydrated due to the high water activity conditions for production.
# [5] = Dynamic Vapour Sorption (DVS) hygroscopicity; type: physicochemical; conditions: for DVS mass uptake at 90% RH: 25° C., uptake from input material; for Hygroscopicity: DVS
# Experimental: Dynamic Vapour Sorption (DVS). Approximately, 10 mg of sample was placed into a mesh vapour sorption balance pan and loaded into a DVS-1 or DVS Advantage dynamic vapour sorption balance by Surface Measurement Systems. The sample was subjected to a ramping profile from 40-90% relative humidity (RH) at 10% increments, maintaining the sample at each step until a stable weight had been achieved (dm/dt 0.004%, minimum step length 30 minutes, maximum step length 500 minutes) at 25° C. After completion of the sorption cycle, the sample was dried using the same procedure to 0% RH and then a second sorption cycle back to 40% RH. Two cycles were performed. The weight change during the sorption/desorption cycles were plotted, allowing for the hygroscopic nature of the sample to be determined. XRPD analysis was then carried out on any solid retained.
# [6] = Aqueous solubility assessment of salts; type: physicochemical
# [7] = Inhaled pharmacokinetics of fixed combination nintedanib esylate and pirfenidone; type: in vivo, C57BL/6 mice; conditions: 10.0 mg/kg each IT; for half-life: read-out: Elimination half-life (alpha-phase)
# Experimental: Plasma and lung tissue samples were taken 2, 5, 10, 20, 40 min and 1, 2, and 4 hours post dose. Nintedanib was extracted and quantitated as μg/mL plasma and μg/gram lung tissue.
# [8] = Inhaled pharmacokinetics of nintedanib salt forms (intratracheal); type: in vivo, C57BL/6 mice; conditions: C57BL/6 mice; for AUC 0-last / Elimination half-life (alpha-phase): 1.0 mg/kg IT; for Cmax: 1.0 mg/kg IT (base equivalent)
# [9] = Human inhaled dose projection vs Ofev 150 mg oral; conditions: 0.42 mg inhaled vs Ofev 150 mg oral
# [10] = Water Activity 0.3 (acetone/water)
# [11] = Water Activity 0.6 (acetone/water)
# [12] = Water Activity 0.9 (acetone/water)
# [13] = female, C57BL/6, mouse, inhaled or intranasal, Lung (whole lung homogenate)
# [14] = female, C57BL/6, mouse, inhaled or intranasal, Plasma
compound,measurement,setting,value
Br.COC(=O)c1ccc2c(c1)NC(=O)C2=C(Nc1ccc(N(C)C(=O)CN2CCN(C)CC2)cc1)c1ccccc1 [AP069],Apparent Solubility,[1],1020 µg/mL
Br.COC(=O)c1ccc2c(c1)NC(=O)C2=C(Nc1ccc(N(C)C(=O)CN2CCN(C)CC2)cc1)c1ccccc1 [AP036],Apparent Solubility,[1],970 µg/mL
Maleic acid,XRPD pattern after 72 hrs 40° C./75% RH,[2]; Initial pattern 1,1
same,XRPD pattern after 72 hrs 40° C./75% RH,[2]; Initial pattern 2,2
Br.COC(=O)c1ccc2c(c1)NC(=O)/C2=C(\Nc1ccc(N(C)C(=O)CN2CCN(C)CC2)cc1)c1ccccc1 [AP143],Apparent Solubility,[1],960 µg/mL
COC(=O)c1ccc2c(c1)NC(=O)/C2=C(\Nc1ccc(N(C)C(=O)CN2CCN(C)CC2)cc1)c1ccccc1.CS(=O)(=O)O [MSA],XRPD pattern after 72 hrs 40° C./75% RH,[2]; Initial pattern 1,1
same,XRPD pattern after 72 hrs 40° C./75% RH,[2]; Initial pattern 2,1
Br.COC(=O)c1ccc2c(c1)NC(=O)C2=C(Nc1ccc(N(C)C(=O)CN2CCN(C)CC2)cc1)c1ccccc1 [AP177w],Apparent Solubility,[1],1030 µg/mL
Br.COC(=O)c1ccc2c(c1)NC(=O)C2=C(Nc1ccc(N(C)C(=O)CN2CCN(C)CC2)cc1)c1ccccc1 [AP177d],Apparent Solubility,[1],2050 µg/mL
COC(=O)c1ccc2c(c1)NC(=O)/C2=C(\Nc1ccc(N(C)C(=O)CN2CCN(C)CC2)cc1)c1ccccc1.O=P(O)(O)O.O=P(O)(O)O [Phosphate],XRPD pattern after 72 hrs 40° C./75% RH,[2]; Initial pattern 1,1
same,XRPD pattern after 72 hrs 40° C./75% RH,[2]; Initial pattern 2,2
same,Purity (%),"[3]; 40° C./75% RH, 7 day stability testing",99.8%
same,XRPD pattern after 7 day stability testing,[3]; 40° C./75% RH,Pattern 4
same,XRPD pattern after 7 day stability testing,[3]; 80° C. and ambient conditions/light,remain Pattern 3
same,Purity (%),"[3]; 80° C., 7 day stability testing",99.2%
same,Purity (%),"[3]; Ambient, 7 day stability testing",99.6%
same,Purity (%),[3]; Input,99.9%
same,pH Post-Agitation,[4]; [10],2.68
same,pH Pre-Agitation,[4]; [10],3.08
same,pH Post-Agitation,[4]; [11],2.52
same,pH Pre-Agitation,[4]; [11],2.60
same,pH Post-Agitation,[4]; [12],2.35
same,pH Pre-Agitation,[4]; [12],2.34
same,pH Post-Agitation,[4]; Water Activity 1.0 (water),1.78
same,pH Pre-Agitation,[4]; Water Activity 1.0 (water),2.75
same,DVS mass uptake at 90% RH,[5],further 10.6% uptake up
same,DVS mass uptake at 90% RH,[5]; listed as phosphate salt,ca. 10.6%
same,Hygroscopicity,[5],Hygroscopic
same,Hygroscopicity,[5]; listed as phosphate salt,hygroscopic
same,pH at 6 h,"[6]; salt in water, after agitation",3.00
same,pH at 18 h,"[6]; salt in water, after agitation",2.11
same,Initial pH,"[6]; salt in water, solubility assessment",3.43
COC(=O)c1ccc2c(c1)NC(=O)/C2=C(\Nc1ccc(N(C)C(=O)CN2CCN(C)CC2)cc1)c1ccccc1.O=S(=O)(O)CCO [HESA],XRPD pattern after 72 hrs 40° C./75% RH,[2]; Initial pattern 1,2
same,XRPD pattern after 72 hrs 40° C./75% RH,[2]; Initial pattern 2,2
Br.COC(=O)c1ccc2c(c1)NC(=O)C2=C(Nc1ccc(N(C)C(=O)CN2CCN(C)CC2)cc1)c1ccccc1 [AP064],Apparent Solubility,[1],1960 µg/mL
CC(=O)O [Acetate],XRPD pattern after 72 hrs 40° C./75% RH,[2]; Initial pattern 1,1(FB)
same,XRPD pattern after 72 hrs 40° C./75% RH,[2]; Initial pattern 2,1
Cc1ccc(=O)n(-c2ccccc2)c1 [Pirfenidone],AUC 0-last,[7]; Lung (whole lung homogenate),5.2 mg·h/kg
same,Cmax,[7]; [13],279000 ng/g
same,half-life,[7]; [13],0.7 min
same,AUC(0-t),[7]; [14],3800 ng·h/mL
same,Cmax,[7]; [14],7900 ng/mL
same,half-life,[7]; [14],8.9 min
COC(=O)c1ccc2c(c1)NC(=O)/C2=C(\Nc1ccc(N(C)C(=O)CN2CCN(C)CC2)cc1)c1ccccc1.Cl [Nintedanib chloride],AUC 0-last,[8]; lung (whole lung homogenate),60.1 mg·h/kg
same,Elimination half-life (alpha-phase),[8]; lung (whole lung homogenate),3.9 min
same,Cmax,[8]; plasma,400 ng/mL
same,AUC 0-last,[8]; plasma,200 ng·h/mL
same,Elimination half-life (alpha-phase),[8]; plasma,1.7 min
Br.COC(=O)c1ccc2c(c1)NC(=O)C2=C(Nc1ccc(N(C)C(=O)CN2CCN(C)CC2)cc1)c1ccccc1 [AP178d],Apparent Solubility,[1],1940 µg/mL
O=C(O)/C=C/C(=O)O [Fumarate],XRPD pattern after 72 hrs 40° C./75% RH,[2]; Initial pattern 1,1
same,XRPD pattern after 72 hrs 40° C./75% RH,[2]; Initial pattern 2,2(MU)
same,pH (aqueous solubility measurement),[6]; primary screen samples,6.41
Br.COC(=O)c1ccc2c(c1)NC(=O)C2=C(Nc1ccc(N(C)C(=O)CN2CCN(C)CC2)cc1)c1ccccc1 [AP178w],Apparent Solubility,[1],1010 µg/mL
O=S(=O)(O)O [Sulfuric acid],XRPD pattern after 72 hrs 40° C./75% RH,[2]; Initial pattern 1,1
same,XRPD pattern after 72 hrs 40° C./75% RH,[2]; Initial pattern 2,1
same,XRPD pattern after 72 hrs 40° C./75% RH,[2]; Initial pattern 3,3
same,XRPD pattern after 72 hrs 40° C./75% RH,[2]; Initial pattern 4,3
Br.COC(=O)c1ccc2c(c1)NC(=O)/C2=C(\Nc1ccc(N(C)C(=O)CN2CCN(C)CC2)cc1)c1ccccc1 [Nintedanib bromide],AUC 0-last,[8]; lung (whole lung homogenate),51.2 mg·h/kg
same,Elimination half-life (alpha-phase),[8]; lung (whole lung homogenate),4.1 min
same,Cmax,[8]; plasma,200 ng/mL
same,AUC 0-last,[8]; plasma,200 ng·h/mL
same,Elimination half-life (alpha-phase),[8]; plasma,2.4 min
N[C@@H](CC(=O)O)C(=O)O [L-Aspartic acid],XRPD pattern after 72 hrs 40° C./75% RH,[2]; Initial pattern 1,1
Br.COC(=O)c1ccc2c(c1)NC(=O)C2=C(Nc1ccc(N(C)C(=O)CN2CCN(C)CC2)cc1)c1ccccc1 [AP152],Apparent Solubility,[1],1950 µg/mL
Saccharin,XRPD pattern after 72 hrs 40° C./75% RH,[2]; Initial pattern 1,2
same,XRPD pattern after 72 hrs 40° C./75% RH,[2]; Initial pattern 2,2
same,Solubility (aqueous),[6],<625 µg/mL
same,pH (aqueous solubility measurement),[6],5.51
COC(=O)c1ccc2c(c1)NC(=O)/C2=C(\Nc1ccc(N(C)C(=O)CN2CCN(C)CC2)cc1)c1ccccc1 [Inhaled nintedanib],"% Pharmacokinetics (inhaled compared to oral), AUC",[9]; lung,1047%
same,"% Pharmacokinetics (inhaled compared to oral), Cmax",[9]; lung,2600%
same,"% Pharmacokinetics (inhaled compared to oral), AUC",[9]; plasma,100%
same,"% Pharmacokinetics (inhaled compared to oral), Cmax",[9]; plasma,83%
Br.COC(=O)c1ccc2c(c1)NC(=O)C2=C(Nc1ccc(N(C)C(=O)CN2CCN(C)CC2)cc1)c1ccccc1 [AP018],Apparent Solubility,[1],2040 µg/mL
